Test results published in patent US8791267B2, “Biaryl PDE4 inhibitors for treating inflammatory, cardiovascular and CNS disorders” (Decode Genetics EHF, priority 2007, dated 2014).
Where two headings read alike, the source gives them in different places.

Key:
[1] = biological target: PDE4 (Homo sapiens, UniProt Q08499); assay: In-vitro assay for PDE4 enzymes, real-time enzyme-coupled spectrophotometric assay (Table 9); type: biochemical
[2] = biological target: PDE4B (Homo sapiens, UniProt Q07343); assay: In-vitro assay for PDE4 enzymes, real-time enzyme-coupled spectrophotometric assay, PDE4B Activity (Table 10); type: biochemical
[3] = human PDE4D, activity class, Table 9, read-out: hPDE4D
[4] = human PDE4B (hPDE4B), enzyme-coupled spectrophotometric assay, read-out: PDE4B Activity, hPDE4B

PDE4, sequence (Q08499 whole entry): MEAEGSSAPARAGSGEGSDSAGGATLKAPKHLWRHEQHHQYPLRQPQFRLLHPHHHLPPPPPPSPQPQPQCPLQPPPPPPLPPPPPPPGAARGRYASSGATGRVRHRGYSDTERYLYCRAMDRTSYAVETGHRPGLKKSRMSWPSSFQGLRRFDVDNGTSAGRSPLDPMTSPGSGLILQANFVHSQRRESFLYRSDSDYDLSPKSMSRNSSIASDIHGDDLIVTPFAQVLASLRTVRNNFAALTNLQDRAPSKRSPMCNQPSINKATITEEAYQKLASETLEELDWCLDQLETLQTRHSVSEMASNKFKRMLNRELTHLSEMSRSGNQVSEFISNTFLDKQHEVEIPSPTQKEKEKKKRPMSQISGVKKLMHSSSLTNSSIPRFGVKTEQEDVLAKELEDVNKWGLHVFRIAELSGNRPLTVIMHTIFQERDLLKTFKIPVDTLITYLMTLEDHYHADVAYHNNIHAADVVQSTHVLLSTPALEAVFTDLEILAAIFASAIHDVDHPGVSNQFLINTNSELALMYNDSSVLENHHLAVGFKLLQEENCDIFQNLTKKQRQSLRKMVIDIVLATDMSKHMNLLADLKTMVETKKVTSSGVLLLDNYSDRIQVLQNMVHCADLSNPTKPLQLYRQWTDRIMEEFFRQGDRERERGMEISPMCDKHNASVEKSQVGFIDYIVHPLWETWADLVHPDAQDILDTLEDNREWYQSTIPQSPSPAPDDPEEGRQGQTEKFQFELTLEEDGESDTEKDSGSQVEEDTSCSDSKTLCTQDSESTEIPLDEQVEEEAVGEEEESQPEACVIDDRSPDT
PDE4B, sequence (Q07343 whole entry): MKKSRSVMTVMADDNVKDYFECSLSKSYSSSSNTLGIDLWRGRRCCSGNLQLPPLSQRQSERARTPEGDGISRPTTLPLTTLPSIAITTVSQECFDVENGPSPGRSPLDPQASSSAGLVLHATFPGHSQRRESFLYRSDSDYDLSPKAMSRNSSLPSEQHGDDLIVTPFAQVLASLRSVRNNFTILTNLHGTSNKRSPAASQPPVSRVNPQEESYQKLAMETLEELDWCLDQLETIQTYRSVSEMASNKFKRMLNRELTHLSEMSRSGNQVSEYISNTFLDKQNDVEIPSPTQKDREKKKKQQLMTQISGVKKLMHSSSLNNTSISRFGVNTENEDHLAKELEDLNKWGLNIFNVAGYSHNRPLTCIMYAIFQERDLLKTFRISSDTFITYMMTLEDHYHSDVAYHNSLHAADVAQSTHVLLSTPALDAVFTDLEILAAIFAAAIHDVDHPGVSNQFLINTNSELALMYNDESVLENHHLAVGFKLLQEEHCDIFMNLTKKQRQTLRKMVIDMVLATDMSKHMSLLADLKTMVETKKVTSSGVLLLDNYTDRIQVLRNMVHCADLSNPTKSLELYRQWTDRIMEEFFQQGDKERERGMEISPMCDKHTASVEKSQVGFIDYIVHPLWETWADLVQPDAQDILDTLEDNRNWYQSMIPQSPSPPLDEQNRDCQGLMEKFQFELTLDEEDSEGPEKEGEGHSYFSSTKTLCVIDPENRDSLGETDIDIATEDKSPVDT

SMILES | IC50 [1, 3] [µM] | IC50 [2, 4] [µM] | IC50 [1] [µM] | IC50 [2] [µM]
COc1ccc(Cn2ccc(N)cc2=O)cc1-c1cccc([N+](=O)[O-])c1 [P-215, 4-Amino-1-(6-methoxy-3′-nitro-biphenyl-3-ylmethyl)-1H-pyridin-2-one] | 5 to 20 | 5 to 20 | – | –
COc1ccc(Cc2ccc(O)cc2)c(F)c1-c1cccc(Cl)c1 [P-216] | < 5 | < 5 | – | –
COc1ccc(Cc2cccc(O)c2)c(F)c1-c1cccc(Cl)c1 [P-217] | < 5 | < 5 | – | –
COc1ccc(CN2CCCC2=O)cc1-c1cccc(Cl)c1 [P-218, 1-(3′-chloro-6-methoxy-biphenyl-3-ylmethyl)-pyrrolidin-2-one] | < 5 | < 5 | – | –
COc1ccc(Cc2ccc(OC(N)=O)cc2)c(F)c1-c1cccc(Cl)c1 [P-221] | – | – | < 5 | < 5
COc1ccc(Cc2cccc(OC(N)=O)c2)c(F)c1-c1cccc(Cl)c1 [P-222] | – | – | < 5 | < 5
COc1ccc(CN2CCCC2=O)cc1-c1ccc(F)c(F)c1 [P-223, 1-(3′,4′-difluoro-6-methoxy-biphenyl-3-ylmethyl)-pyrrolidin-2-one] | 5 to 20 | 5 to 20 | – | –
COc1ccc(COc2ccccn2)cc1-c1cccc([N+](=O)[O-])c1 [P-224, 2-(6-Methoxy-3′-nitro-biphenyl-3-ylmethoxy)-pyridine] | 5 to 20 | 5 to 20 | – | –
COc1ccc(Cc2ccc(OC)c(-c3cccc(Cl)c3)c2F)cn1 [P-225] | < 5 | < 5 | – | –
COc1ccc(Cc2ccc(Cl)nc2)c(F)c1-c1cccc(Cl)c1 [P-226] | < 5 | 5 to 20 | – | –
COc1ccc(Cc2ccc(NS(C)(=O)=O)cc2)c(F)c1-c1cccc(Cl)c1 [P-227] | < 5 | < 5 | – | –

Further lines, with some results ahead:

IC50 [1, 3] [µM] | IC50 [2, 4] [µM] | SMILES | IC50 [1] [µM] | IC50 [2] [µM]
< 5 | < 5 | COc1ccc(Cc2ccc(NC(C)=O)cc2)c(F)c1-c1cccc(Cl)c1 [P-228] | – | –
< 5 | < 5 | COc1ccc(CN2CCCC2=O)c(O)c1-c1cccc([N+](=O)[O-])c1 [P-229] | – | –
< 5 | < 5 | COc1ccc(Cc2cccc(NC(C)=O)c2)c(F)c1-c1cccc(Cl)c1 [P-233] | – | –
< 5 | < 5 | COc1ccc(Cc2cccc(N)c2)c(F)c1-c1cccc(Cl)c1 [P-234] | – | –
20 to 40 | 21 to 40 | COc1ccc(Cn2c(N)cccc2=O)cc1-c1cccc([N+](=O)[O-])c1 [P-236, 6-Amino-1-(6-methoxy-3′-nitro-biphenyl-3-ylmethyl)-1H-pyridin-2-one] | – | –
< 5 | < 5 | COc1ccc(Cc2ccc(CNC(N)=O)cc2)c(F)c1-c1cccc([N+](=O)[O-])c1 [P-237] | – | –
< 5 | 5 to 20 | COc1ccc(Cc2ccc(C(N)=O)cc2)cc1-c1cccc(Cl)c1 [P-240, 4-(3′-Chloro-6-methoxy-biphenyl-3-ylmethyl)-benzamide] | – | –
< 5 | < 5 | COc1ccc(Cc2ccc3c(c2)OCO3)c(F)c1-c1cccc(Cl)c1 [P-242] | – | –
< 5 | < 5 | COc1ccc(Cc2ccc(NC(N)=O)cc2)c(F)c1-c1cccc(Cl)c1 [P-243, [4-(3′-chloro-2-fluoro-6-methoxy-biphenyl-3-ylmethyl)-phenyl]-urea] | – | –
< 5 | < 5 | COc1ccc(CCn2ccccc2=O)cc1-c1cccc([N+](=O)[O-])c1 [P-244, 1-[2-(6-Methoxy-3′-nitro-biphenyl-3-yl)-ethyl]-1H-pyridin-2-one] | – | –
5 to 20 | < 5 | COc1ccc(CN2CCCC2=O)cc1-c1cccc(SC)c1 [P-245, 1-(6-methoxy-3′-methylsulfanyl-biphenyl-3-ylmethyl)-pyrrolidin-2-one] | – | –
5 to 20 | < 5 | COc1ccc(Cc2ccc(NS(C)(=O)=O)cc2)cc1-c1cccc(Cl)c1 [P-246, N-[4-(3′-Chloro-6-methoxy-biphenyl-3-ylmethyl)-phenyl]-methanesulfonamide] | – | –
